PubChem BioAssay (NCI)
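Abbreviation: GI50, concentration required for 50% inhibition of growth. TGI marks complete inhibition of growth.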

Tests used:
Assay in all cases: inhibition of tumour cell growth, NCI panel, 384-well format
[1] = test system: MALME-3M melanoma
[2] = test system: NCI/ADR-RES ovarian
[3] = test system: U251 glioblastoma
[4] = test system: BT-549 breast
[5] = test system: HL-60(TB) leukemia
[6] = test system: NCI-H226 lung
[7] = test system: NCI-H322M lung
[8] = test system: SNB-19 CNS
[9] = test system: MDA-MB-468 breast
[10] = test system: PC-3 prostate
[11] = test system: RXF 393 renal
[12] = test system: LOX IMVI melanoma
[13] = test system: SF-295 CNS
[14] = test system: UO-31 renal
[15] = test system: SNB-75 CNS
[16] = test system: M14 melanoma
[17] = test system: A498 renal
[18] = test system: EKVX NSCLC
[19] = test system: HOP-62 NSCLC
[20] = test system: SF-268 CNS
[21] = test system: MCF7 breast
[22] = test system: K-562 leukemia
[23] = test system: 786-0 renal
[24] = test system: HOP-92 NSCLC
[25] = test system: T-47D breast
[26] = test system: CAKI-1 renal
[27] = test system: COLO 205 colon
[28] = test system: HCT-116 colon
[29] = test system: TK-10 renal
[30] = test system: NCI-H522 lung
[31] = test system: A549 NSCLC
[32] = test system: HT29 colon
[33] = test system: UACC-257 melanoma
[34] = test system: SW-620 colon
[35] = test system: MDA-MB-435 melanoma
[36] = test system: MDA-MB-231 breast
[37] = test system: MOLT-4 leukemia
[38] = test system: IGROV1 ovarian
[39] = test system: DU-145 prostate
[40] = test system: HCC-2998 colon
[41] = test system: NCI-H460 NSCLC
[42] = test system: OVCAR-4 ovarian
[43] = test system: SF-539 CNS
[44] = test system: NCI-H23 lung
[45] = test system: SN12C renal
[46] = test system: SK-MEL-5 melanoma
[47] = test system: HCT-15 colon
[48] = test system: HS 578T breast
[49] = test system: RPMI-8226 leukemia
[50] = test system: CCRF-CEM leukemia
[51] = test system: SK-MEL-28 melanoma
[52] = test system: OVCAR-3 ovarian
[53] = test system: OVCAR-8 ovarian
[54] = test system: OVCAR-5 ovarian
[55] = test system: SK-OV-3 ovarian
[56] = test system: UACC-62 melanoma
[57] = test system: ACHN renal
[58] = test system: KM12 colon

NC(=O)[C@@H](CCC(F)(F)F)N(Cc1ccc(-c2ncon2)cc1F)S(=O)(=O)c1ccc(Cl)cc1
GI50 [1]: 13.4 µM | TGI [1]: 26.2 µM | GI50 [2]: 17.1 µM | TGI [2]: 32 µM | GI50 [3]: 17.3 µM | TGI [3]: 31.1 µM | GI50 [4]: 17.2 µM | TGI [4]: 32.2 µM | GI50 [5]: 14 µM | TGI [5]: 27.1 µM | GI50 [6]: 14.4 µM | TGI [6]: 28.3 µM | GI50 [7]: 15 µM | TGI [7]: 29.5 µM | GI50 [8]: 16.9 µM | TGI [8]: 31.5 µM | GI50 [9]: 3.28 µM | TGI [9]: 22.1 µM | GI50 [10]: 12.7 µM | TGI [10]: 25.8 µM | GI50 [11]: 11.7 µM | TGI [11]: 23.9 µM | GI50 [12]: 14.4 µM | TGI [12]: 27.8 µM | GI50 [13]: 17 µM | TGI [13]: 31 µM | GI50 [14]: 13 µM | TGI [14]: 25.9 µM | GI50 [15]: 14.1 µM | TGI [15]: 28.1 µM | GI50 [16]: 12.5 µM | TGI [16]: 25.1 µM | GI50 [17]: 17.7 µM | TGI [17]: 31.8 µM | GI50 [18]: 15.8 µM | TGI [18]: 31.4 µM | GI50 [19]: 14.7 µM | TGI [19]: 28.1 µM | GI50 [20]: 13 µM | TGI [20]: 25.8 µM | GI50 [21]: 14.5 µM | TGI [21]: 28.3 µM | GI50 [22]: 13.5 µM | TGI [22]: 26.7 µM | GI50 [23]: 14.4 µM | TGI [23]: 27.6 µM | GI50 [24]: 13.1 µM | TGI [24]: 26.2 µM | GI50 [25]: 2.15 µM | TGI [25]: 10.5 µM | GI50 [26]: 15.9 µM | TGI [26]: 30.9 µM | GI50 [27]: 15.5 µM | TGI [27]: 30.2 µM | GI50 [28]: 15.2 µM | TGI [28]: 28.8 µM | GI50 [29]: 18.3 µM | TGI [29]: 36.4 µM | GI50 [30]: 17.7 µM | TGI [30]: 31.6 µM | GI50 [31]: 14.6 µM | TGI [31]: 28.1 µM | GI50 [32]: 14.2 µM | TGI [32]: 27.4 µM | GI50 [33]: 14.1 µM | TGI [33]: 27.3 µM | GI50 [34]: 17.6 µM | TGI [34]: 32.5 µM | GI50 [35]: 13.5 µM | TGI [35]: 26.8 µM | GI50 [36]: 14.6 µM | TGI [36]: 28.5 µM | GI50 [37]: 5.98 µM | TGI [37]: 19.8 µM | GI50 [38]: 16.4 µM | TGI [38]: 30.5 µM | GI50 [39]: 19 µM | TGI [39]: 36.4 µM | GI50 [40]: 3.09 µM | TGI [40]: 12.6 µM | GI50 [41]: 15.5 µM | TGI [41]: 29.2 µM | GI50 [42]: 14.7 µM | TGI [42]: 28.1 µM | GI50 [43]: 17.7 µM | TGI [43]: 31.7 µM | GI50 [44]: 14.6 µM | TGI [44]: 28.6 µM | GI50 [45]: 16.7 µM | TGI [45]: 30.5 µM | GI50 [46]: 12.9 µM | TGI [46]: 25.8 µM | GI50 [47]: 15.4 µM | TGI [47]: 29.9 µM | GI50 [48]: 12.6 µM | TGI [48]: 25.2 µM | GI50 [49]: 13.6 µM | TGI [49]: 26.6 µM | GI50 [50]: 11.6 µM | TGI [50]: 23.8 µM | GI50 [51]: 18.1 µM | TGI [51]: 32.1 µM | GI50 [52]: 15.6 µM | TGI [52]: 29.1 µM | GI50 [53]: 17.1 µM | TGI [53]: 31 µM | GI50 [54]: 17.7 µM | TGI [54]: 33.8 µM | GI50 [55]: 17.5 µM | TGI [55]: 34.4 µM | GI50 [56]: 11.4 µM | TGI [56]: 23.6 µM | GI50 [57]: 16 µM | TGI [57]: 30 µM | GI50 [58]: 15 µM | TGI [58]: 28.7 µM
